According to PubChem BioAssay AID256 (DTP/NCI, 2004):
“And” between values parts separate entries of the source, which are not always exact repeats. Equal entries are not always repeated. Toxic doses and inconclusive results are not listed. Rule for the calls: active = survival T/C of 150% or more; inactive = T/C below 125% in these data.

Test system: CD2F1 mice, L1210 leukemia ip, survival T/C
Assay: NCI In Vivo Anticancer Drug Screen. Data for tumor model L1210 Leukemia (intraperitoneal) in CD2F1 (CDF1) mice
Details: endpoint: mean survival time, higher = longer survival
Protocol: The antitumor activity of compounds was measured in mice bearing transplantable tumors. Survival or tumor size were measured and the results are expressed as the measurement made in the treated group (T) divided by the measurement made in the vehicle treated control group (C). The tumor model used in this assay is L1210 Leukemia (intraperitoneal) in CD2F1 (CDF1) mice

[1] = dose: 100.0 mg/kg/injection, schedule: Q04DX003 (ip), vehicle: saline with Tween-80
[2] = dose: 200.0 mg/kg/injection, schedule: Q04DX003 (ip), vehicle: saline with Tween-80
[3] = dose: 400.0 mg/kg/injection, schedule: Q04DX003 (ip), vehicle: saline with Tween-80
[4] = dose: 100.0 mg/kg/injection, schedule: Q01DX001 (ip), vehicle: Klucel (hydroxypropylcellulose) (HPC)
[5] = dose: 200.0 mg/kg/injection, schedule: Q01DX001 (ip), vehicle: Klucel (hydroxypropylcellulose) (HPC)
[6] = dose: 400.0 mg/kg/injection, schedule: Q01DX001 (ip), vehicle: Klucel (hydroxypropylcellulose) (HPC)
[7] = dose: 100.0 mg/kg/injection, schedule: Q04DX003 (ip), vehicle: saline
[8] = dose: 200.0 mg/kg/injection, schedule: Q04DX003 (ip), vehicle: saline
[9] = dose: 400.0 mg/kg/injection, schedule: Q04DX003 (ip), vehicle: saline
[10] = dose: 50.0 mg/kg/injection, schedule: Q01DX009 (ip), vehicle: saline with Tween-80
[11] = dose: 100.0 mg/kg/injection, schedule: Q01DX009 (ip), vehicle: saline with Tween-80

Measured: T/C

C1=NC(c2ccccn2)=NNC(c2ccccn2)=C1c1ccccc1
inactive: dose: 12.5 mg/kg/injection, schedule: Q01DX009 (ip), vehicle: Klucel (hydroxypropylcellulose) (HPC) 97 % of control | dose: 25.0 mg/kg/injection, schedule: Q01DX009 (ip), vehicle: Klucel (hydroxypropylcellulose) (HPC) 100 % of control | dose: 50.0 mg/kg/injection, schedule: Q01DX009 (ip), vehicle: Klucel (hydroxypropylcellulose) (HPC) 95 % of control | dose: 100.0 mg/kg/injection, schedule: Q01DX009 (ip), vehicle: Klucel (hydroxypropylcellulose) (HPC) 100 % of control | dose: 200.0 mg/kg/injection, schedule: Q01DX009 (ip), vehicle: Klucel (hydroxypropylcellulose) (HPC) 97 % of control

COc1cc(C=O)ccc1OCc1ccccc1
inactive: [1] 106 % of control | [2] 95 % of control | [3] 113 % of control

O=C1CC(c2ccccc2)=NCCN1
inactive: [4] 100 % of control | [5] 102 % of control | [6] 103 % of control

OC(CN(C1CCCCC1)C1CCCCC1)c1ccc(Cl)c(Cl)c1 (stereo not drawn)
inactive: dose: 100.0 mg/kg/injection, schedule: Q01DX001 (ip), vehicle: saline 95 % of control | [7] 95 % of control | dose: 200.0 mg/kg/injection, schedule: Q01DX001 (ip), vehicle: saline 91 % of control | [8] 98 % of control | dose: 400.0 mg/kg/injection, schedule: Q01DX001 (ip), vehicle: saline 96 % of control | [9] 101 % of control

CN(C)CCCNCCCCNCCCN(C)C
inactive: dose: 100.0 mg/kg/injection, schedule: Q01DX009 (ip), vehicle: saline 102 % of control | [7] 96 % of control | dose: 200.0 mg/kg/injection, schedule: Q01DX009 (ip), vehicle: saline 102 % of control | [8] 101 % of control | [9] 106 % of control

Fc1c(F)c(N(c2ccccc2)c2ccccc2)c(F)c(F)c1N(c1ccccc1)c1ccccc1
inactive: [1] 95 % of control | [2] 95 % of control | [3] 93 % of control

O=c1[nH]cc(Cc2cccc(OCc3ccccc3)c2)c(=O)[nH]1
inactive: dose: 75.0 mg/kg/injection, schedule: Q01DX001 (ip), vehicle: saline with Tween-80 97 % of control | dose: 150.0 mg/kg/injection, schedule: Q01DX001 (ip), vehicle: saline with Tween-80 98 % of control | dose: 300.0 mg/kg/injection, schedule: Q01DX001 (ip), vehicle: saline with Tween-80 89 % of control

CCC(C(=O)O)c1ccccc1 (stereo not drawn)
inactive: dose: 100.0 mg/kg/injection, schedule: Q04DX003 (ip), vehicle: saline sonified 97 % of control | dose: 200.0 mg/kg/injection, schedule: Q04DX003 (ip), vehicle: saline sonified 101 % of control

CCC(C)(C)C(=O)O
inactive: [1] 100 % of control | [2] 103 % of control | [3] 105 % of control

CCCCCNC(=O)CCC(NC(=O)c1ccc(N(C)Cc2cnc3nc(N)nc(N)c3n2)cc1)C(=O)O (stereo not drawn)
inactive: dose: 1.0 mg/kg/injection, schedule: Q01DX009 (ip), vehicle: sodium bicarbonate 107 % of control | dose: 10.0 mg/kg/injection, schedule: Q01DX009 (ip), vehicle: sodium bicarbonate 118 % of control | dose: 50.0 mg/kg/injection, schedule: Q01DX009 (ip), vehicle: sodium bicarbonate 122 % of control
active: dose: 200.0 mg/kg/injection, schedule: Q01DX009 (ip), vehicle: sodium bicarbonate 152 % of control | dose: 400.0 mg/kg/injection, schedule: Q01DX009 (ip), vehicle: sodium bicarbonate 164 % of control

N#CC1CCCC1=O (stereo not drawn)
inactive: dose: 5.0 mg/kg/injection, schedule: Q04DX003 (ip), vehicle: saline 101 % of control | dose: 10.0 mg/kg/injection, schedule: Q04DX003 (ip), vehicle: saline 101 % of control | dose: 20.0 mg/kg/injection, schedule: Q04DX003 (ip), vehicle: saline 106 % of control

OC(CCc1ccccc1)(C(F)(F)Cl)C(F)(F)Cl
inactive: [1] 98 % of control | [2] 89 % of control | [3] 92 % of control

CO[C@H](C(=O)[C@@H](O)[C@@H](C)O)[C@@H]1Cc2cc3cc(OC4CC(OC5CC(O)C(O)C(C)O5)C(O)C(C)O4)c(C)c(O)c3c(O)c2C(=O)[C@H]1OC1CC(OC2CC(OC3CC(C)(O)C(O)C(C)O3)C(O)C(C)O2)C(O)C(C)O1 (stereo partly drawn)
inactive: dose: 0.13 mg/kg/injection, schedule: Q01DX009 (ip), vehicle: saline 95 % of control and 97 % of control and 101 % of control | dose: 0.25 mg/kg/injection, schedule: Q01DX009 (ip), vehicle: saline 95 % of control and 97 % of control and 103 % of control | dose: 0.5 mg/kg/injection, schedule: Q01DX009 (ip), vehicle: saline 93 % of control and 100 % of control and 105 % of control | dose: 0.5 mg/kg/injection, schedule: Q01DX Z (ip), vehicle: saline 124 % of control | dose: 1.0 mg/kg/injection, schedule: Q01DX009 (ip), vehicle: saline 101 % of control and 104 % of control and 107 % of control

O=C1NC(=O)c2c(O)ccc(O)c21
inactive: [4] 114 % of control | [5] 91 % of control | [6] 95 % of control

BrCCN(CCBr)c1ccc2c3c(cccc13)-c1ccccc1-2
inactive: dose: 1.5 mg/kg/injection, schedule: Q01DX Z (ip), vehicle: saline 113 % of control | dose: 2.0 mg/kg/injection, schedule: Q01DX Z (ip), vehicle: saline 98 % of control | dose: 3.2 mg/kg/injection, schedule: Q01DX Z (ip), vehicle: saline 110 % of control | dose: 5.0 mg/kg/injection, schedule: Q01DX Z (ip), vehicle: saline 121 % of control

CC(C)=CCN1C(=O)c2ccccc2C1=O
inactive: dose: 25.0 mg/kg/injection, schedule: Q01DX009 (ip), vehicle: saline with Tween-80 102 % of control | dose: 25.0 mg/kg/injection, schedule: Q04DX003 (ip), vehicle: saline with Tween-80 101 % of control | [10] 98 % of control | dose: 50.0 mg/kg/injection, schedule: Q04DX003 (ip), vehicle: saline with Tween-80 101 % of control | [11] 96 % of control | [1] 110 % of control

CC(C)CC(NC(=O)C(N)Cc1ccc(N(CCCl)CCCl)cc1)C(=O)O (stereo not drawn)
inactive: dose: 1.0 mg/kg/injection, schedule: Q04DX003 (ip), vehicle: saline with Tween-80 106 % of control | dose: 2.0 mg/kg/injection, schedule: Q04DX003 (ip), vehicle: saline with Tween-80 111 % of control | dose: 4.0 mg/kg/injection, schedule: Q04DX003 (ip), vehicle: saline with Tween-80 113 % of control | dose: 8.0 mg/kg/injection, schedule: Q04DX003 (ip), vehicle: saline with Tween-80 118 % of control | dose: 32.0 mg/kg/injection, schedule: Q04DX003 (ip), vehicle: saline with Tween-80 112 % of control | dose: 64.0 mg/kg/injection, schedule: Q04DX003 (ip), vehicle: saline with Tween-80 121 % of control

c1ccc(-c2ncnc3c2Cc2ccccc2-3)cc1
inactive: dose: 100.0 mg/kg/injection, schedule: Q01DX009 (ip), vehicle: saline sonified 94 % of control | dose: 200.0 mg/kg/injection, schedule: Q01DX009 (ip), vehicle: saline sonified 100 % of control | dose: 400.0 mg/kg/injection, schedule: Q01DX009 (ip), vehicle: saline sonified 98 % of control

CCOC(=O)N/N=C/c1cc(Cl)cc(Cl)c1O
inactive: dose: 50.0 mg/kg/injection, schedule: Q01DX001 (ip), vehicle: saline with Tween-80 111 % of control | dose: 100.0 mg/kg/injection, schedule: Q01DX001 (ip), vehicle: saline with Tween-80 98 % of control | dose: 200.0 mg/kg/injection, schedule: Q01DX001 (ip), vehicle: saline with Tween-80 90 % of control

Cc1nc(N)n[nH]1
inactive: [11] 92 % of control | [7] 102 % of control | dose: 200.0 mg/kg/injection, schedule: Q01DX009 (ip), vehicle: saline with Tween-80 97 % of control | [8] 100 % of control | dose: 400.0 mg/kg/injection, schedule: Q01DX009 (ip), vehicle: saline with Tween-80 88 % of control | [9] 96 % of control

C[N+](C)(C)CC1CO1 (stereo not drawn)
inactive: [7] 106 % of control | [8] 94 % of control

O=C(Nc1ccc2cc(S(=O)(=O)O)ccc2c1)c1ccc(N=Nc2c(S(=O)(=O)O)cc3cc(S(=O)(=O)O)cc(NC(=O)c4ccccc4)c3c2O)cc1
inactive: [10] 96 % of control | [11] 101 % of control

Cc1cn(C2CC(O)C(CS[As](C)C)O2)c(=O)[nH]c1=O (stereo not drawn)
inactive: dose: 12.5 mg/kg/injection, schedule: Q01DX005 (ip), vehicle: distilled water + Tween-80 98 % of control | dose: 25.0 mg/kg/injection, schedule: Q01DX005 (ip), vehicle: distilled water + Tween-80 102 % of control | dose: 50.0 mg/kg/injection, schedule: Q01DX005 (ip), vehicle: distilled water + Tween-80 102 % of control | dose: 100.0 mg/kg/injection, schedule: Q01DX005 (ip), vehicle: distilled water + Tween-80 93 % of control
